The nature of the data set: Solubility test: apparent solubility in test solutions, HPLC-UV. The class given is physicochemical. To be noted: for solubility: aqueous buffer, thermodynamic from solid. As for the experimental part: Several milligram of each compound to be tested was precisely weighed, and 0.1 to 1.3 mL of the following test solutions were each added to the compound. The resulting mixture was stirred for several tens of seconds to several minutes for dispersing or dissolving the compound. Then, the supernatant was collected by centrifugation or filtration through a membrane. The concentration of the compound in the supernatant was quantitatively measured by an HPLC-UV method as an apparent solubility of the compound to each test solution.
pH 5: Diluted Mcllvaine buffer solution (KANTO Chemical Co. Inc.)
pH 7: GIBCO™ Dulbecco's phosphate-buffered saline (Invitrogen Corporation)

Setting [1] is: pH 7: Dulbecco's phosphate-buffered saline, read-out: Solubility at pH 7.
Setting [2] is: diluted McIlvaine buffer solution, pH 5: Diluted Mcllvaine buffer solution, read-out: Solubility at pH 5.

Where two headings read alike, the source gives them in different places. Some results are limits rather than exact numbers.

Consider 16 compounds from patent US7737141B2, “Prodrug of cinnamide compound” (Eisai R&D Management Co., Ltd., priority 2006, dated 2010).

Take “1-{4-{(E)-1-{[(S)-1-(4-fluorophenyl)ethyl]-2-oxopiperidin-3-ylidene}methyl}-2-methoxyphenyl}-4-methyl-1H-imidazol-3-iomethyl monohydrogenphosphate [Example 2]”: the “Solubility at pH 5” value (pH 5: Diluted Mcllvaine buffer solution) is reported as greater than 10 mg/mL. Further, the “Solubility at pH 7” value (pH 7: Dulbecco's phosphate-buffered saline) was greater than 10 mg/mL.
Consider `COc1cc(/C=C2\CCCN([C@@H](C)c3ccc(F)cc3)C2=O)ccc1-n1cc(C)[n+](COC(C)=O)c1.[I-]` [Example 3, 1-acetoxymethyl-3-[4-{1-[(S)-1-(4-fluorophenyl)ethyl]-2-oxopiperidin-(3E)-ylidenemethyl]-2-methoxyphenyl}-5-methyl-3H-imidazol-1-ium iodide], for which the solubility under setting [1] came out at 1120 µg/mL and the solubility under setting [2] is 1240 µg/mL.
`COc1cc(/C=C2\CCCN([C@H](c3cc(F)c(F)c(F)c3)[C@@H](C)O)C2=O)ccc1-n1cc(C)[n+](COP(=O)(O)O)c1.O=C([O-])C(F)(F)F` [Example 4, 3-{4-{1-[(1R,2R)-2-hydroxy-1-(3,4,5-trifluorophenyl)propyl]-2-oxopiperidin-(3E)-ylidenemethyl}-2-methoxyphenyl}-5-methyl-1-(phosphonooxymethyl)-3H-imidazol-1-ium trifluoroacetate]: the solubility is greater than 10000 µg/mL under setting [1] and greater than 10000 µg/mL under setting [2].
In the case of `Cc1cn(-c2ccc(/C=C3\O[C@@H](C)CN([C@H](c4cc(F)c(F)c(F)c4)[C@@H](C)O)C3=O)cc2F)c[n+]1COP(=O)(O)O.O=C([O-])C(F)(F)F` [Example 5, 3-[2-fluoro-4-[(S)-4-[(1R,2R)-2-hydroxy-1-(3,4,5-trifluorophenyl)propyl]-6-methyl-3-oxomorpholin-(2Z)-ylidenemethyl]phenyl]-5-methyl-1-phosphonooxymethyl-3H-imidazol-1-ium trifluoroacetate], the solubility runs as follows: under setting [1], 460 µg/mL; under setting [2], 320 µg/mL.
As to `COc1cc(/C=C2\CC[C@H]3CC[C@@H](c4cc(F)c(F)c(F)c4)N3C2=O)ccc1-n1cc(C)[n+](COP(=O)(O)O)c1.O=C([O-])C(F)(F)F` [Example 6, 3-{2-methoxy-4-[(3S,8aS)-5-oxo-3-(3,4,5-trifluorophenyl)hexahydroindolizin-(6E)-ylidenemethyl]phenyl}-5-methyl-1-phosphonooxymethyl-3H-imidazol-1-ium trifluoroacetate], the solubility came to 8890 µg/mL under setting [1] and 9140 µg/mL under setting [2].
With `COc1cc(/C=C2\CC[C@H]3CC[C@@H](c4ccc(Cl)cc4)N3C2=O)ccc1-n1cc(C)[n+](COP(=O)(O)O)c1.O=C([O-])C(F)(F)F` [Example 8, 3-{4-[(3S,8aS)-3-(4-chlorophenyl)-5-oxohexahydroindolizin-(6E)-ylidenemethyl]-2-methoxyphenyl}-5-methyl-1-(phosphonooxymethyl)-3H-imidazol-1-ium trifluoroacetate], the solubility by setting is: under setting [1], 1690 µg/mL; under setting [2], 960 µg/mL.
In the case of `Cc1cn(-c2ccc(/C=C3\O[C@@H](C)CN([C@H](c4ccc(F)c(F)c4)[C@@H](C)O)C3=O)cc2F)c[n+]1COP(=O)(O)O.O=C([O-])C(F)(F)F` [Example 9, 3-{4-{(S)-4-[(1R,2R)-1-(3,4-difluorophenyl)-2-hydroxypropyl]-6-methyl-3-oxomorpholin-(2Z)-ylidenemethyl}-2-fluorophenyl}-5-methyl-1-phosphonooxymethyl-3H-imidazol-1-ium trifluoroacetate], the solubility was determined as 4720 µg/mL under setting [1] and 3450 µg/mL under setting [2].
For `COc1cc(/C=C2\CC[C@@H]3CCC[C@@H](c4cc(F)c(F)c(F)c4)N3C2=O)ccc1-n1cc(C)[n+](COP(=O)(O)O)c1.O=C([O-])C(F)(F)F` [Example 10, 3-{2-methoxy-4-[(6S,9aS)-4-oxo-6-(3,4,5-trifluorophenyl)hexahydroquinolizin-(3E)-ylidenemethyl]phenyl}-5-methyl-1-(phosphonooxymethyl)-3H-imidazol-1-ium trifluoroacetate], the solubility is, setting by setting: under setting [1], 9760 µg/mL; under setting [2], 9590 µg/mL.
Turning to `COc1cc(/C=C2\CC[C@H]3COC[C@@H](c4cc(F)c(F)c(F)c4)N3C2=O)ccc1-n1cc(C)[n+](COP(=O)(O)O)c1.O=C([O-])C(F)(F)F` [Example 11, 3-{2-methoxy-4-[(4R,9aS)-6-oxo-4-(3,4,5-trifluorophenyl)hexahydropyrido[2,1-c][1,4]oxazin-(7E)-ylidenemethyl]phenyl}-5-methyl-1-phosphonooxymethyl-3H-imidazol-1-ium trifluoroacetate], the solubility came out at 8110 µg/mL under setting [1] and 7680 µg/mL under setting [2].
Take `COc1cc(/C=C2\O[C@@H](C)CN([C@H](c3cc(F)c(F)c(F)c3)[C@@H](C)O)C2=O)ccc1-n1cc(C)[n+](COP(=O)(O)O)c1.O=C([O-])C(F)(F)F` [Example 12, 3-{4-{(S)-4-[(1R,2R)-2-hydroxy-1-(3,4,5-trifluorophenyl)propyl]-6-methyl-3-oxomorpholin-(2Z)-ylidenemethyl}-2-methoxyphenyl}-5-methyl-1-(phosphonooxymethyl)-3H-imidazol-1-ium trifluoroacetate]: the solubility reads like this: under setting [1], 1830 µg/mL; under setting [2], 3440 µg/mL.
In the case of `COc1cc(/C=C2\CC[C@H]3CCC[C@@H](c4ccc(Cl)cc4)N3C2=O)ccc1-n1cc(C)[n+](COP(=O)(O)O)c1.O=C([O-])C(F)(F)F` [Example 13, 3-{4-[(6S,9aR)-6-(4-chlorophenyl)-4-oxohexahydroquinolizin-(3E)-ylidenemethyl]-2-methoxyphenyl}-5-methyl-1-phosphonooxymethyl-3H-imidazol-1-ium trifluoroacetate], the solubility worked out at 9150 µg/mL under setting [1] and 9330 µg/mL under setting [2].
Consider `COc1cc(/C=C2\O[C@@H](C)[C@H]3COC[C@@H](c4cc(F)c(F)c(F)c4)N3C2=O)ccc1-n1cc(C)[n+](COP(=O)(O)O)c1.O=C([O-])C(F)(F)F` [Example 14, 3-{2-methoxy-4-[(1S,6R,9aR)-1-methyl-4-oxo-6-(3,4,5-trifluorophenyl)tetrahydro-[1,4]oxazino[3,4-c][1,4]oxazine-(3Z)-ylidenemethyl]phenyl}-5-methyl-1-phosphonooxymethyl-3H-imidazole-1-ium trifluoroacetate], for which the solubility by setting is: under setting [1], greater than 10000 µg/mL; under setting [2], greater than 10000 µg/mL.
Consider `COc1cc(/C=C2\O[C@@H](C)[C@H]3COC[C@@H](c4ccc(Cl)cc4)N3C2=O)ccc1-n1cc(C)[n+](COP(=O)(O)O)c1.O=C([O-])C(F)(F)F` [Example 15, 3-{4-[(1S,6R,9aR)-6-(4-chlorophenyl)-1-methyl-4-oxotetrahydro[1,4]oxazino[3,4-c][1,4]oxazine-(3Z)-ylidenemethyl]-2-methoxyphenyl}-5-methyl-1-phosphonooxymethyl-3H-imidazole-1-ium trifluoroacetate], for which the solubility is, setting by setting: under setting [1], greater than 10000 µg/mL; under setting [2], greater than 10000 µg/mL.
Consider `COc1cc(/C=C2\O[C@@H](C)[C@H]3CC[C@@H](c4cc(F)c(F)c(F)c4)N3C2=O)ccc1-n1cc(C)[n+](COP(=O)(O)O)c1.O=C([O-])C(F)(F)F` [Example 16, 3-{2-methoxy-4-[(1S,6S,8aR)-1-methyl-4-oxo-6-(3,4,5-trifluorophenyl)tetrahydropyrrolo[2,1-c][1,4]oxazine-(3Z)-ylidenemethyl]phenyl}-5-methyl-1-phosphonooxymethyl-3H-imidazole-1-ium trifluoroacetate], for which the solubility under setting [1] is 1120 µg/mL and the solubility under setting [2] came out at 1150 µg/mL.
With `COc1cc(/C=C2\O[C@@H](C)[C@H]3COC[C@@H](c4ccc(F)c(F)c4)N3C2=O)ccc1-n1cc(C)[n+](COP(=O)(O)O)c1.O=C([O-])C(F)(F)F` [Example 17, 3-{4-[(1S,6R,9aR)-6-(3,4-difluorophenyl)-1-methyl-4-oxotetrahydro[1,4]oxazino[3,4-c][1,4]oxazine-(3Z)-ylidenemethyl]-2-methoxyphenyl}-5-methyl-1-phosphonooxymethyl-3H-imidazole-1-ium trifluoroacetate], the solubility is 7550 µg/mL under setting [1] and greater than 10000 µg/mL under setting [2].
As for `COc1cc(/C=C2\OC(C)(C)[C@H]3COC[C@@H](c4cc(F)c(F)c(F)c4)N3C2=O)ccc1-n1cc(C)[n+](COP(=O)(O)O)c1.O=C([O-])C(F)(F)F` [Example 18, 3-{4-[(6R,9aR)-1,1-dimethyl-4-oxo-6-(3,4,5-trifluorophenyl)tetrahydro[1,4]oxazino[3,4-c][1,4]oxazine-(3Z)-ylidenemethyl]-2-methoxyphenyl}-5-methyl-1-phosphonooxymethyl-3H-imidazole-1-ium trifluoroacetate], the solubility reads like this: under setting [1], greater than 10000 µg/mL; under setting [2], greater than 10000 µg/mL.

In general, Solubility refers to the dissolved amount per volume that the medium holds. As a reminder, the solubility is how much of the substance goes into solution per volume.
